Our source for the IC50 values is BindingDB's records for doi:10.1016/j.bmc.2013.03.060 (Meijo University, 2013).

Each structure is given as a SMILES string.

The experiment deals with T1, Androgen receptor (Homo sapiens, UniProt P10275).
T1 sequence (P10275 whole entry): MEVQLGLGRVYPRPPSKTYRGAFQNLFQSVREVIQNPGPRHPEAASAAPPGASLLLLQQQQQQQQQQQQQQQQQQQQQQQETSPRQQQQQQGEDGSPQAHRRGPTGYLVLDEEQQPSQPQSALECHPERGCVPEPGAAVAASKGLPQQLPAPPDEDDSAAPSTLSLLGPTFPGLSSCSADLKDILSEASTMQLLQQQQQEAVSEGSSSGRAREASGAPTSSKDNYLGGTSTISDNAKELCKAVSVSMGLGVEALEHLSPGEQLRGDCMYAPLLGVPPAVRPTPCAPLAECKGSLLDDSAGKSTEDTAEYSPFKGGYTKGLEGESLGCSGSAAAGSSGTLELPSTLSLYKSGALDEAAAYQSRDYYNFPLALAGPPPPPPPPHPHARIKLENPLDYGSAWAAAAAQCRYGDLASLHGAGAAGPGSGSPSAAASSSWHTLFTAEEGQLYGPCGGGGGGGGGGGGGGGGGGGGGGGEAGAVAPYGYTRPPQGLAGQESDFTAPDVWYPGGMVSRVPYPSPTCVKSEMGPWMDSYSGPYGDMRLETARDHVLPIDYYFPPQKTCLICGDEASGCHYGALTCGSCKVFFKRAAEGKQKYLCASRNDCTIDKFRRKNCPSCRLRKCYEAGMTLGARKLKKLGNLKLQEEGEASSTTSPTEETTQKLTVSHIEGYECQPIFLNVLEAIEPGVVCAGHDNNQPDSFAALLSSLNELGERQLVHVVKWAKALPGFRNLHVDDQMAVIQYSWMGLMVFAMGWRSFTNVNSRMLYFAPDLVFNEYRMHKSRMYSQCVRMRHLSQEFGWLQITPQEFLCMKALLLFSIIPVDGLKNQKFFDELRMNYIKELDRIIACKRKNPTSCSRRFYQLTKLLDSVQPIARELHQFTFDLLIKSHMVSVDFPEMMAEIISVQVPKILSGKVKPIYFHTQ
Kind of experiment: Antagonist activity at human androgen receptor LBD expressed in human MDA-kb2 cells by luciferase reporter gene assay.

The compound `O=c1cccc2oc(-c3ccc(O)cc3)cc(O)c1-2` [5-hydroxy-2-(4-hydroxyphenyl)-4H-chromen-4-one] gave an IC50 of 851 nM. `CN(C)c1ccc(-c2cc(O)c3c(=O)cccc-3o2)cc1`: the IC50 was 851 nM.
